The record followed here is US5077293A, “1-indolyalkyl-4-(alkoxypyrimidinyl)piperazines” (Bristol-Myers Squibb Co., priority 1990, dated 1991).

This test relates to serotonin uptake. The experiment in a line: Inhibition of serotonin uptake (in vitro): inhibition of synaptosomal reuptake of tritiated serotonin. Format: biochemical. The procedure: Determination of endogenous monoaminergic re-uptake inhibition values both for serotonin and norepinephrine was accomplished using test methods described by P. Skolnick, et al., Br. J. Pharmacology (1985), 86, pp. 637-644; with only minor modifications. In vitro IC50 (nM) test values were determined for representative compounds of Formula I based on their inhibition of synaptosomal reuptake of tritiated serotonin. Test data IC50 values lower than 500 nM are considered to reflect activity as an inhibitor of serotonin reuptake. Compounds with Ic50 values lower than 100 nM comprise preferred compounds.
Turning to `COc1cncnc1N1CCN(CCCc2cn(C)c3ccccc23)C(C)C1` (stereo not shown) [Example 36], the IC50 stood at 4.7 nM.
Next, `COc1cncnc1N1CCN(CCc2c[nH]c3ccc(F)cc23)CC1` [Example 31]: 0.92 nM.
The same measure for `COc1cc(N2CCN(CCCc3c[nH]c4ccccc34)CC2)ncn1` [Example 37]: 5.85 nM.
Next, `COc1cncnc1N1CCN(CCCc2c[nH]c3ccc(Cl)cc23)C(C)C1` (stereo not shown) [Example 32]: 2.1 nM.
Regarding `COc1cncnc1N1CCN(CCCc2c[nH]c3cc(F)c(F)cc23)C(C)C1` (stereo not shown) [Example 30], the IC50 was 1.46 nM.
The same measure for `COc1cncnc1N1CCN(CCCc2c[nH]c3ccc(F)cc23)C(C)C1` (stereo not shown) [Example 23, 3-[3-[4-(5-Methoxy-4-pyrimidinyl)-2-methyl-1-piperazinyl]propyl]-5-fluoroindole]: 0.03 nM; for `CCOc1cncnc1N1CCN(CCCc2c[nH]c3ccccc23)CC1` [Example 27]: 6.35 nM; for `COc1cncnc1N1CCN(CCCc2c[nH]c3ccc(Cl)cc23)CC1` [Example 29]: 2.9 nM.
Next, `CCC1CN(c2ncncc2OC)CCN1CCCc1c[nH]c2ccccc12` (stereo not shown) [Example 33]: 2.64 nM.
Next, `COc1cc(N2CCN(CCCc3c[nH]c4ccccc34)C(C)C2)ncn1` (stereo not shown) [Example 39]: 9.3 nM.
`COc1cncnc1N1CCN(CCCc2c[nH]c3ccc(F)cc23)CC1` [Example 24, 3-[3-[4-(5-Methoxy-4-pyrimidinyl)-1-piperazinl]propyl]-5-fluoroindole] returned an IC50 of 0.3 nM.
The same measure for `COc1cncnc1N1CCN(CCCc2c[nH]c3ccccc23)CC1` [Example 28]: 4.3 nM; for `COc1cncnc1N1CCN(CCc2c[nH]c3ccc(F)cc23)C(C)C1` (stereo not shown) [Example 35]: 3.1 nM; for `COc1cncnc1N1CCN(CCc2c[nH]c3cc(F)c(F)cc23)CC1` [Example 34]: 3.1 nM.
`CCOc1cncnc1N1CCN(CCCc2c[nH]c3ccccc23)C(C)C1` (stereo not shown) [Example 38] returned an IC50 of 13.4 nM.
The same measure for `COc1cncnc1N1CCN(CCCc2c[nH]c3cc(F)ccc23)C(C)C1` (stereo not shown) [Example 25, 3-[3-[4-(5-Methoxy-4-pyrimidinyl)-2-methyl-1-pioerazinyl]-propyl]-6-fluoroindole]: 3.7 nM.
